Source: patent US4062950A, “Amino sugar derivatives” (priority 1973, dated 1977)
Several values for one entry are separate records, joined by “and”; a condition that tells them apart may be missing. Identical values can stand only once.

Key:
saccharase = molecular target: T1, saccharase (Sus scrofa, UniProt P56729); test: In vitro saccharase test; format: biochemical, pig; settings: for saccharase inhibiting activity of isolated product: product of the Examples
T1 construct: sucrase subunit of the sucrase-isomaltase complex hydrolyses sucrose
Protocol: One saccharase inhibitor unit (SIU) is defined as the amount of inhibitor which inhibits two saccharase units to the extent of 50%. One saccharase unit (SU) is the amount of enzyme which under the test conditions specified splits 1 μmol of sucrose to glucose and fructose per minute. The μmols of glucose formed are determined quantitatively by means of the glucose oxidase reaction under conditions under which a further splitting of the sucrose by the saccharase no longer takes place. To carry out the test, 0.05 ml of solubilized saccharase [from the mucous membrane of the small intestine of the pig, according to B. Borgastrom, A. Dahlquist, Acta Chem. Scand. 12, (1958), page 1,997], diluted with 0.1 M sodium maleate buffer of pH 6.0 to a SU content adjusted to 0.12 SU is mixed with 0-20 μg of inhibitor or 0-20 μl of the solution to be tested and brought up to 0.1 ml with 0.1 M sodium maleate buffer of pH 6.0. The mixture is equilibrated for 10 minutes at 35° C and 0.1 ml of an 0.05 M sucrose solution in 0.1 M sodium maleate buffer of pH 6.0, pre-warmed to 35° C, is then added. The mixture is incubated for 20 minutes at 35° C, the saccharase reaction is stopped by addition of 1 ml of glucose oxidase reagent, and the incubation is continued for a further 30 minutes at 35° C. (The glucose oxidase reagent is prepared by dissolving 2 mg of glucose oxidase, Boehringer, No. 15,423, in 100 ml of 0.565 M tris-HCl buffer of pH 7.0 and subsequently adding 1 ml of detergent solution (2 g of Triton X 100 + 8 g of 95% strength and analytical grade ethanol), 1 ml of dianisidine solution (260 mg of o-dianisidine. 2HCl in 20 ml of H2 O) and 0.5 ml of 0.1% strength aqueous peroxidase solution, Boehringer, No. 15,302). Thereafter, 1 ml of 50% strength H2 SO4 is added and a measurement carried out at 545 nm against a corresponding blank. To evaluate the results, the percentage inhibition of the saccharase employed is calculated and converted to SIU/g of SIU/liter from the 50% inhibition point, using a glucose calibration curve.

starch digestion = test: In vivo starch digestion inhibition (starch feeding test) in the fasting rat
Solubility = format: physicochemical
glucose absorption = test: Effect on glucose absorption in fasting rats; format: in vivo, rat
Protocol: The produce an alimentary hyperglycemia and hyperinsulinaemia, groups of 6 fasting rats are given (a) 2.5 g of sucrose, (b) 2.5 g of maltose or (c) 1 g of boiled starch orally, in aqueous solution or suspension. Six other rats are given the same carbohydrates in the same amount and a glycoside hydrolase inhibitor in the amount indicated. In addition, six other rats are given an appropriate volume of saline. The blood glucose and the serum insulin are then measured at short intervals of time, in the blood from the retro-orbital venous plexus. Blood glucose determinations are carried out in the Auto-Analyser device (Technicon), according to Hoffmann: J. biol. Chem. 120, 51 (1937), or enzymatically by means of glucose oxidase and o-dianisidine hydrochloride and the serum insulin determinations are carried out according to the method of Hales and Randle: Biochem. J. 88, 137 (1963).

T1 sequence (P56729 with tags, fused parts or gaps): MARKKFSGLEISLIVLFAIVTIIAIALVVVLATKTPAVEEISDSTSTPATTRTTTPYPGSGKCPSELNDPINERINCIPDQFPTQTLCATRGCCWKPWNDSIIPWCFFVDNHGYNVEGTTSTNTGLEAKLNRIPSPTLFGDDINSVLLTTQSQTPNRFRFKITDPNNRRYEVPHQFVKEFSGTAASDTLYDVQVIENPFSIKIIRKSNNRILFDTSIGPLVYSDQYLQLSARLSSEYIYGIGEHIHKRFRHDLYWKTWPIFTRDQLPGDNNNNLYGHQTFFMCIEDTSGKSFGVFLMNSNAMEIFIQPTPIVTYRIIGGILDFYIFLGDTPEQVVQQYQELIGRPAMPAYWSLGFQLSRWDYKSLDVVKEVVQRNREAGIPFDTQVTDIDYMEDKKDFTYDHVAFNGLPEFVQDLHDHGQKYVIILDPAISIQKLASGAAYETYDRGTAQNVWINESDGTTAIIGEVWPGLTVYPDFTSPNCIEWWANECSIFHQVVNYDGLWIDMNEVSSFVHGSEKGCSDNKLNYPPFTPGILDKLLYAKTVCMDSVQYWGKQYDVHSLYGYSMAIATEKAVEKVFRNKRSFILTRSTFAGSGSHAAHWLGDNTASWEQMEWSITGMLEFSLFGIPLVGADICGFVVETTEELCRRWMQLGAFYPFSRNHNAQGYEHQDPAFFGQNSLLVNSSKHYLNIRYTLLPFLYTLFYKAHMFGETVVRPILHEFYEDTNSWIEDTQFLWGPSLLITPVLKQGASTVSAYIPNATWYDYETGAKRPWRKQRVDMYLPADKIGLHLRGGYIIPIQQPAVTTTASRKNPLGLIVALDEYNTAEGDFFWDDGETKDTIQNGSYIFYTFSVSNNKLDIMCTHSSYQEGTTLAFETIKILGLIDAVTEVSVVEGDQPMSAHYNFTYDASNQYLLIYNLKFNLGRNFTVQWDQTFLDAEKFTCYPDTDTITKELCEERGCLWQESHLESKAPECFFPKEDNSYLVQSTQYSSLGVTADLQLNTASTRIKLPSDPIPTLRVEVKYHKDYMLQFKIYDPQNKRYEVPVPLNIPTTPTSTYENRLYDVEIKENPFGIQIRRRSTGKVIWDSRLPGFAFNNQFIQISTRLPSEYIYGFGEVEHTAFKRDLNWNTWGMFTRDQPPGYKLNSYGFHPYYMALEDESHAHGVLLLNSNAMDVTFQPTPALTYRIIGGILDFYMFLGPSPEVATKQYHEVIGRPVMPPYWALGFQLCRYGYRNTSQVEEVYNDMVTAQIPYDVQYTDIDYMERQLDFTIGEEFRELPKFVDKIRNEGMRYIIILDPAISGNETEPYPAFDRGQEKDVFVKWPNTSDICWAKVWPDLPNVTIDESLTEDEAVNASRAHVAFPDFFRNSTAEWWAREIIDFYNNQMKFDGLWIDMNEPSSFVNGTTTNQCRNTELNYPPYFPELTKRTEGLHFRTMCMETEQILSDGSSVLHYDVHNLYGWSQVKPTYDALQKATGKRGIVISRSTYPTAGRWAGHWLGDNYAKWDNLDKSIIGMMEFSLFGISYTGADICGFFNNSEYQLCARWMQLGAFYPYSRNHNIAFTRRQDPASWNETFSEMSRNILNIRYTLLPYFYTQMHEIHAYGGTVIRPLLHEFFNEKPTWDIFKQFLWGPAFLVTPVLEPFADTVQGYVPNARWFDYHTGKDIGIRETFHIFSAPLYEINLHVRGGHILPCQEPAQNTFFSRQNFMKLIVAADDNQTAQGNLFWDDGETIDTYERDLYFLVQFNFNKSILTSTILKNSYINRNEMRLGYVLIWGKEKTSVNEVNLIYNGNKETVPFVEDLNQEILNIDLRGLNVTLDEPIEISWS

C[C@H]1O[C@H](O[C@H]2[C@H](O)[C@@H](O)[C@@H](O[C@H]3[C@H](O)[C@@H](O)C(O)O[C@@H]3CO)O[C@@H]2CO)[C@H](O)[C@@H](O)[C@@H]1N[C@H]1C=C(CO)[C@@H](O)[C@H](O)[C@H]1O (stereo partly drawn) [Formula IIIB, O-{4,6-bisdesoxy-4-[1 S-(1,4,6/5)-4,5,6-trihydroxy-3-hydroxymethylcyclohex-2-en-1-ylamino]-α-D-glucopyranosyl}-(1→4)-O-α-D-glucopyranosyl-(1→4)-D-glucopyranose]
Saccharase inhibition, in words (saccharase; in vitro): most pronounced
Saccharase Inhibition (saccharase; in vitro, Table II): 68,000 SIU/g
Saccharase Inhibition In Vitro (saccharase; in vitro, Table IV): 68 SIU/mg
saccharase inhibiting activity of isolated product (saccharase; listed as 2 glucose units): 50,000 SIU/g and 60,000 SIU/g
saccharase inhibiting activity of isolated product (saccharase; listed as 2 units): 68,000 SIU/g
saccharase inhibiting activity of isolated product (saccharase; listed as two glucose units): 65,000 SIU/g
Blood Glucose (Mean ± SD) (starch digestion; 1 g starch + 150 AIU oral, 5 Min.): 82 ± 7.5 mg%
Blood Glucose (Mean ± SD) (starch digestion; 1 g starch + 150 AIU oral, 10 Min.): 105 ± 4.2 mg%
Blood Glucose (Mean ± SD) (starch digestion; 1 g starch + 150 AIU oral, 15 Min.): 120 ± 6.0 mg%
Blood Glucose (Mean ± SD) (starch digestion; 1 g starch + 150 AIU oral, 20 Min.): 124 ± 7.0 mg%
Blood Glucose (Mean ± SD) (starch digestion; 1 g starch + 150 AIU oral, 30 Min.): 134 ± 6.1 mg%
Blood Glucose (Mean ± SD) (starch digestion; 1 g starch + 150 AIU oral, 45 Min.): 125 ± 5.2 mg%
Blood Glucose (Mean ± SD) (starch digestion; 1 g starch + 300 AIU oral, 5 Min.): 79 ± 8.2 mg%
Blood Glucose (Mean ± SD) (starch digestion; 1 g starch + 300 AIU oral, 10 Min.): 97 ± 2.7 mg%
Blood Glucose (Mean ± SD) (starch digestion; 1 g starch + 300 AIU oral, 15 Min.): 105 ± 10 mg%
Blood Glucose (Mean ± SD) (starch digestion; 1 g starch + 300 AIU oral, 20 Min.): 118 ± 6.7 mg%
Blood Glucose (Mean ± SD) (starch digestion; 1 g starch + 300 AIU oral, 30 Min.): 119 ± 9.9 mg%
Blood Glucose (Mean ± SD) (starch digestion; 1 g starch + 300 AIU oral, 45 Min.): 130 ± 5.9 mg%
Blood Glucose (Mean ± SD) (starch digestion; 1 g starch + 600 AIU oral, 5 Min.): 70 ± 4.6 mg%
Blood Glucose (Mean ± SD) (starch digestion; 1 g starch + 600 AIU oral, 10 Min.): 80 ± 8.8 mg%
Blood Glucose (Mean ± SD) (starch digestion; 1 g starch + 600 AIU oral, 15 Min.): 94 ± 6.9 mg%
Blood Glucose (Mean ± SD) (starch digestion; 1 g starch + 600 AIU oral, 20 Min.): 91 ± 16 mg%
Blood Glucose (Mean ± SD) (starch digestion; 1 g starch + 600 AIU oral, 30 Min.): 103 ± 9.2 mg%
Blood Glucose (Mean ± SD) (starch digestion; 1 g starch + 600 AIU oral, 45 Min.): 102 ± 4.2 mg%
Blood Glucose (Mean ± SD) (starch digestion; 1 g starch + 1,200 AIU oral, 5 Min.): 70 ± 7.0 mg%
Blood Glucose (Mean ± SD) (starch digestion; 1 g starch + 1,200 AIU oral, 10 Min.): 84 ± 7.7 mg%
Blood Glucose (Mean ± SD) (starch digestion; 1 g starch + 1,200 AIU oral, 15 Min.): 88 ± 7.4 mg%
Blood Glucose (Mean ± SD) (starch digestion; 1 g starch + 1,200 AIU oral, 20 Min.): 97 ± 5.2 mg%
Blood Glucose (Mean ± SD) (starch digestion; 1 g starch + 1,200 AIU oral, 30 Min.): 97 mg%
Blood Glucose (Mean ± SD) (starch digestion; 1 g starch + 1,200 AIU oral, 45 Min.): 100 ± 4.3 mg%
ED50 (starch digestion; ED50, starch, fasting rat, Table VI): 1.6 mg/kg
in vivo inhibition of starch digestion, in words (starch digestion; compared with expectation from in vitro amylase inhibition): much higher than would be expected
water solubility (Solubility): readily water-soluble
Blood Glucose (Mean ± SD) (glucose absorption; glucose + 30 mg, 15 Min.): 135 ± 13 mg%
Blood Glucose (Mean ± SD) (glucose absorption; glucose + 30 mg, 30 Min.): 128 ± 5.5 mg%
Blood Glucose (Mean ± SD) (glucose absorption; glucose + 30 mg, 45 Min.): 132 ± 7.3 mg%
Blood Glucose (Mean ± SD) (glucose absorption; glucose + 60 mg, 15 Min.): 125 ± 13 mg%
Blood Glucose (Mean ± SD) (glucose absorption; glucose + 60 mg, 30 Min.): 118 ± 2.9 mg%
Blood Glucose (Mean ± SD) (glucose absorption; glucose + 60 mg, 45 Min.): 130 ± 9.0 mg%
